One may read the inhibition as the drop in the measured response relative to a control, in per cent. Usually IC50 stands for the concentration needed to halve the response being measured. High values mean weaker potency in that assay, low ones greater potency in that assay.

One assay is filed under the species Sus scrofa. In words: Inhibition of porcine heart Succinate-cytochrome c reductase complex 2 by measuring decrease in DCIP at 1 uM relative to control. In kind it is tissue-based. The note with it: […].
Regarding `COC(=O)NC/C=C\c1nc(C(=O)Nc2cccc3c2ccn3Cc2ccccc2C)co1`, the inhibition worked out at 65%.

For the compound `COC(=O)NC/C=C\c1nc(C(=O)Nc2cccc3c2ccn3Cc2ccc(C)cc2)co1`, the inhibition was determined as 55%.

Target in a further assay: not listed separately
Description: Inhibition of porcine heart Succinate-cytochrome c reductase complex 2 by measuring decrease in DCIP. The assay is classed as tissue-based, Sus scrofa.
Conditions: not given
As for `COC(=O)NC/C=C\c1nc(C(=O)Nc2cccc3c2ccn3Cc2cccc(C)c2)co1`, the IC50 is 700 nM.

`COC(=O)NC/C=C\c1nc(C(=O)Nc2cccc3c2ccn3Cc2ccc(F)cc2)co1`: the midpoint of inhibition, the IC50, lay at 1460 nM.

Compound `COC(=O)NC/C=C\c1nc(C(=O)Nc2cccc3c2ccn3Cc2ccccc2F)co1` came in with an IC50 of 1340 nM.

Compound `COC(=O)NC/C=C\c1nc(C(=O)Nc2cccc3c2ccn3Cc2cccc(F)c2)co1` showed a concentration for half-maximal inhibition (IC50) of 1750 nM.

The species named for another assay is Sus scrofa. In words: (§1) Inhibition of porcine heart Succinate-cytochrome c reductase complex 2 by measuring decrease in DCIP at 10 uM relative to control. The assay is classed as tissue-based.
Conditions: not given
Compound `COC(=O)NC/C=C\c1nc(C(=O)OCc2cccc3c2c(Cl)cn3Cc2ccc(C)cc2)co1` returned an inhibition of 11%.

In the case of `COC(=O)NC/C=C\c1nc(C(=O)OCc2cccc3c2c(Cl)cn3C)co1`, the inhibition is less than 10%.

Consider `COC(=O)NC/C=C\c1nc(C(=O)OCc2cccc3c2c(Cl)cn3Cc2ccc(F)cc2)co1`, for which the inhibition is 46%.

`C=CCn1cc(Cl)c2c(COC(=O)c3coc(/C=C\CNC(=O)OC)n3)cccc21` displayed an inhibition of 21%.

The compound `COC(=O)NC/C=C\c1nc(C(=O)OCc2cccc3c2c(Cl)cn3Cc2ccccc2Br)co1` showed an inhibition of 33%.

Compound `COC(=O)NC/C=C\c1nc(C(=O)OCc2cccc3c2c(Cl)cn3Cc2ccc(F)cc2F)co1` came in with an inhibition of 46%.

The compound `CCCn1cc(Cl)c2c(COC(=O)c3coc(/C=C\CNC(=O)OC)n3)cccc21` had an inhibition of 24%.

`COC(=O)NC/C=C\c1nc(C(=O)OCc2cccc3c2c(Cl)cn3Cc2ccccc2C)co1` returned an inhibition of 47%.

Consider `COC(=O)NC/C=C\c1nc(C(=O)OCc2cccc3c2c(Cl)cn3Cc2ccc(Cl)cc2)co1`, for which the inhibition is 31%.

`COC(=O)NC/C=C\c1nc(C(=O)OCc2cccc3c2c(Cl)cn3Cc2ccccc2Cl)co1` registered an inhibition of 31%.

As to `COC(=O)NC/C=C\c1nc(C(=O)OCc2cccc3[nH]cc(Cl)c23)co1`, the inhibition came to 12%.

Compound `COC(=O)NC/C=C\c1nc(C(=O)OCc2cccc3c2c(Cl)cn3Cc2ccccc2)co1` returned an inhibition of 41%.

The compound `COC(=O)NC/C=C\c1nc(C(=O)OCc2cccc3c2c(Cl)cn3Cc2cccc(Cl)c2)co1` showed an inhibition of 23%.

On to `COC(=O)NC/C=C\c1nc(C(=O)OCc2cccc3c2c(Cl)cn3Cc2ccc(Br)cc2)co1`, for which the inhibition stood at 14%.

Turning to `COC(=O)NC/C=C\c1nc(C(=O)OCc2cccc3c2c(Cl)cn3Cc2cccc(Br)c2)co1`, the inhibition was determined as 34%.

Consider `CCn1cc(Cl)c2c(COC(=O)c3coc(/C=C\CNC(=O)OC)n3)cccc21`, for which the inhibition was less than 10%.

`C#CCn1cc(Cl)c2c(COC(=O)c3coc(/C=C\CNC(=O)OC)n3)cccc21` came in with an inhibition of 25%.

For `COC(=O)NC/C=C\c1nc(C(=O)OCc2cccc3c2c(Cl)cn3Cc2cccc(C)c2)co1`, the inhibition came out at 49%.

With `COC(=O)NC/C=C\c1nc(C(=O)OCc2cccc3c2c(Cl)cn3Cc2cc(C)cc(C)c2)co1`, the inhibition is 27%.

Compound `COC(=O)NC/C=C\c1nc(C(=O)OCc2cccc3c2c(Cl)cn3Cc2ccccc2F)co1` showed an inhibition of 50%.

`COC(=O)NC/C=C\c1nc(C(=O)OCc2cccc3c2c(Cl)cn3Cc2cccc(F)c2)co1` showed an inhibition of 32%.

Target in a further assay: not listed separately
Described as §1. The assay is classed as tissue-based, Sus scrofa.
Conditions: not given
`CO/C=C(/C(=O)OC)c1ccccc1Oc1cc(Oc2ccccc2C#N)ncn1` [AZOXYSTROBIN]: the IC50 was 700 nM.

Tested on in the next assay: not listed separately
Description: Inhibition of bovine heart mitochondrial cytochrome bc1 complex. In kind it is mitochondria, Bos taurus, Mitochondria.
Conditions: not given
Consider `CCC[C@H]1C[C@@H](OC)C[C@H](C)C[C@@H]2C[C@@H](OC(=O)/C=C\CCc3coc(/C=C\CNC(=O)OC)n3)C[C@H](CC(=O)O1)O2`, for which the IC50 was found to be 2 nM.

The values above are taken from ChEMBL document CHEMBL4725267, “Design and synthesis of potent inhibitors of bc complex based on natural product neopeltolide” (Bioorg Med Chem Lett, 2020).
